PubChem BioAssay (NCI)
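The compound was tested at five concentrations on cells cultured in 96-well plates, with a 48-hour exposure period. GI50 marks 50% less growth. TGI marks complete inhibition of growth.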

Key:
Assay in all cases: NCI tumour cell line growth inhibition, 48 h
RPMI-8226 leukemia = system: RPMI-8226 leukemia
M14 melanoma = system: M14 melanoma
HCT-116 colon = system: HCT-116 colon
UO-31 renal = system: UO-31 renal
OVCAR-8 ovarian = system: OVCAR-8 ovarian
SNB-19 CNS = system: SNB-19 CNS
HOP-92 NSCLC = system: HOP-92 NSCLC
HL-60(TB) leukemia = system: HL-60(TB) leukemia
BT-549 breast = system: BT-549 breast
OVCAR-5 ovarian = system: OVCAR-5 ovarian

Compound: CCCCCCNC(=O)Oc1ccc(/C(=C(/C)Cc2ccc(OC)cc2)c2ccc(OCCN(C)C)cc2)cc1
- GI50 (RPMI-8226 leukemia): 983 nM
- TGI (RPMI-8226 leukemia): 2700 nM
- GI50 (M14 melanoma): 6180 nM
- TGI (M14 melanoma): 11500 nM
- GI50 (HCT-116 colon): 5520 nM
- TGI (HCT-116 colon): 10300 nM
- GI50 (UO-31 renal): 3870 nM
- TGI (UO-31 renal): 8030 nM
- GI50 (OVCAR-8 ovarian): 5320 nM
- TGI (OVCAR-8 ovarian): 11100 nM
- GI50 (SNB-19 CNS): 5600 nM
- TGI (SNB-19 CNS): 10400 nM
- GI50 (HOP-92 NSCLC): 3490 nM
- TGI (HOP-92 NSCLC): 7900 nM
- GI50 (HL-60(TB) leukemia): 4820 nM
- TGI (HL-60(TB) leukemia): 10300 nM
- GI50 (BT-549 breast): 5110 nM
- TGI (BT-549 breast): 9860 nM
- GI50 (OVCAR-5 ovarian): 4580 nM
- TGI (OVCAR-5 ovarian): 8990 nM

Compound: COc1ccc(NC(=O)n2nc(/C=C\c3ccc(O)c(OC)c3)cc2/C=C\c2ccc(O)c(OC)c2)cc1
- GI50 (RPMI-8226 leukemia): 3380 nM
- TGI (RPMI-8226 leukemia): 29200 nM
- GI50 (M14 melanoma): 3150 nM
- TGI (M14 melanoma): 41500 nM
- GI50 (HCT-116 colon): 3220 nM
- TGI (HCT-116 colon): 42900 nM
- GI50 (UO-31 renal): 1520 nM
- TGI (UO-31 renal): 36400 nM
- GI50 (OVCAR-8 ovarian): 5320 nM
- TGI (OVCAR-8 ovarian): 59900 nM
- GI50 (SNB-19 CNS): 5280 nM
- TGI (SNB-19 CNS): 86700 nM
- GI50 (HOP-92 NSCLC): 7770 nM
- TGI (HOP-92 NSCLC): > 100000 nM
- GI50 (HL-60(TB) leukemia): 2550 nM
- TGI (HL-60(TB) leukemia): 6690 nM
- GI50 (BT-549 breast): 2490 nM
- TGI (BT-549 breast): 29500 nM
- GI50 (OVCAR-5 ovarian): 18800 nM
- TGI (OVCAR-5 ovarian): 54100 nM

Compound: N=c1ccc2nc3c(cc(N)c4ccccc43)oc-2c1
- GI50 (RPMI-8226 leukemia): 427 nM
- TGI (RPMI-8226 leukemia): 2940 nM
- GI50 (M14 melanoma): 164 nM
- TGI (M14 melanoma): 338 nM
- GI50 (HCT-116 colon): 167 nM
- TGI (HCT-116 colon): 353 nM
- GI50 (UO-31 renal): 333 nM
- TGI (UO-31 renal): 958 nM
- GI50 (OVCAR-8 ovarian): 457 nM
- TGI (OVCAR-8 ovarian): 3280 nM
- GI50 (SNB-19 CNS): 242 nM
- TGI (SNB-19 CNS): 795 nM
- GI50 (HOP-92 NSCLC): 1180 nM
- TGI (HOP-92 NSCLC): 3600 nM
- GI50 (HL-60(TB) leukemia): 147 nM
- TGI (HL-60(TB) leukemia): 733 nM
- GI50 (BT-549 breast): 268 nM
- TGI (BT-549 breast): 1270 nM
- GI50 (OVCAR-5 ovarian): 348 nM
- TGI (OVCAR-5 ovarian): 1200 nM

Compound: COc1cc(/C=C2\CN(C(=O)CCN3CCC(=NO)CC3)C/C(=C\c3cc(OC)c(OC)c(OC)c3)C2=O)cc(OC)c1OC
- GI50 (RPMI-8226 leukemia): 268 nM
- TGI (RPMI-8226 leukemia): 851 nM
- GI50 (M14 melanoma): 248 nM
- TGI (M14 melanoma): 812 nM
- GI50 (HCT-116 colon): 206 nM
- TGI (HCT-116 colon): 467 nM
- GI50 (UO-31 renal): 1110 nM
- TGI (UO-31 renal): 2510 nM
- GI50 (OVCAR-8 ovarian): 444 nM
- TGI (OVCAR-8 ovarian): > 35600 nM
- GI50 (SNB-19 CNS): 452 nM
- TGI (SNB-19 CNS): 1580 nM
- GI50 (HOP-92 NSCLC): 676 nM
- TGI (HOP-92 NSCLC): 2040 nM
- GI50 (HL-60(TB) leukemia): 298 nM
- TGI (HL-60(TB) leukemia): 1050 nM
- GI50 (BT-549 breast): 332 nM
- TGI (BT-549 breast): 1230 nM
- GI50 (OVCAR-5 ovarian): 874 nM
- TGI (OVCAR-5 ovarian): 2280 nM

Compound: COC(=O)c1cc(-c2ccc(OC)cc2)[nH]c1N/N=C/c1c(Cl)cccc1Cl
- GI50 (RPMI-8226 leukemia): 187 nM
- TGI (RPMI-8226 leukemia): 575 nM
- GI50 (M14 melanoma): 196 nM
- TGI (M14 melanoma): 1100 nM
- GI50 (HCT-116 colon): 354 nM
- TGI (HCT-116 colon): 2140 nM
- GI50 (UO-31 renal): 287 nM
- TGI (UO-31 renal): 2550 nM
- GI50 (OVCAR-8 ovarian): 442 nM
- TGI (OVCAR-8 ovarian): 5160 nM
- GI50 (SNB-19 CNS): 358 nM
- TGI (SNB-19 CNS): 11500 nM
- GI50 (HOP-92 NSCLC): 206 nM
- TGI (HOP-92 NSCLC): 2500 nM
- GI50 (HL-60(TB) leukemia): 235 nM
- TGI (HL-60(TB) leukemia): 574 nM
- GI50 (BT-549 breast): 177 nM
- TGI (BT-549 breast): 2020 nM
- GI50 (OVCAR-5 ovarian): 1490 nM
- TGI (OVCAR-5 ovarian): 8370 nM

Compound: Nc1cc2[nH]cnc2c(=O)[nH]1
- TGI (RPMI-8226 leukemia): > 300000 nM
- TGI (M14 melanoma): > 300000 nM
- TGI (HCT-116 colon): > 300000 nM
- TGI (UO-31 renal): > 300000 nM
- TGI (OVCAR-8 ovarian): > 300000 nM
- TGI (SNB-19 CNS): > 300000 nM
- TGI (HOP-92 NSCLC): > 300000 nM
- TGI (HL-60(TB) leukemia): 178000 nM
- TGI (BT-549 breast): > 300000 nM
- TGI (OVCAR-5 ovarian): > 289000 nM

Compound: CC[C@]1(O)C[C@@H]2CN(CCc3c([nH]c4ccccc34)[C@@](C(=O)OC)(c3cc4c(cc3OC)N(C)[C@H]3[C@@](O)(C(N)=O)[C@H](O)[C@]5(CC)[C@@H]6C[C@@H]6CN6CC[C@]43[C@@H]65)C2)C1
- GI50 (RPMI-8226 leukemia): < 3.33 nM
- TGI (RPMI-8226 leukemia): > 28700 nM
- GI50 (M14 melanoma): 6.05 nM
- TGI (M14 melanoma): 956 nM
- GI50 (HCT-116 colon): < 3.33 nM
- GI50 (UO-31 renal): 548 nM
- TGI (UO-31 renal): > 33300 nM
- GI50 (OVCAR-8 ovarian): 14.3 nM
- TGI (OVCAR-8 ovarian): > 33300 nM
- GI50 (SNB-19 CNS): < 3.33 nM
- TGI (SNB-19 CNS): > 33300 nM
- GI50 (HOP-92 NSCLC): < 3.33 nM
- TGI (HOP-92 NSCLC): 1820 nM
- GI50 (HL-60(TB) leukemia): < 3.33 nM
- TGI (HL-60(TB) leukemia): 13 nM
- GI50 (BT-549 breast): < 3.33 nM
- TGI (BT-549 breast): 708 nM
- GI50 (OVCAR-5 ovarian): 91.2 nM
- TGI (OVCAR-5 ovarian): > 33300 nM

Compound: C/C(=C(/c1ccc(O)cc1)c1ccc(Cl)cc1)c1ccccc1
- GI50 (RPMI-8226 leukemia): 583 nM
- TGI (RPMI-8226 leukemia): 1690 nM
- GI50 (M14 melanoma): 654 nM
- TGI (M14 melanoma): 1930 nM
- GI50 (HCT-116 colon): 543 nM
- TGI (HCT-116 colon): 1270 nM
- GI50 (UO-31 renal): 509 nM
- TGI (UO-31 renal): 1570 nM
- GI50 (OVCAR-8 ovarian): 900 nM
- TGI (OVCAR-8 ovarian): 3210 nM
- GI50 (SNB-19 CNS): 760 nM
- TGI (SNB-19 CNS): 2180 nM
- GI50 (HOP-92 NSCLC): 448 nM
- TGI (HOP-92 NSCLC): 1090 nM
- GI50 (HL-60(TB) leukemia): 646 nM
- TGI (HL-60(TB) leukemia): 1710 nM
- GI50 (BT-549 breast): 575 nM
- TGI (BT-549 breast): 1530 nM
- GI50 (OVCAR-5 ovarian): 1170 nM
- TGI (OVCAR-5 ovarian): 2670 nM

Compound: Oc1c(CN2CCCC2)cc(CSCc2ccccc2)c2cccnc12
- GI50 (RPMI-8226 leukemia): 1420 nM
- TGI (RPMI-8226 leukemia): 6810 nM
- GI50 (M14 melanoma): 397 nM
- TGI (M14 melanoma): 2590 nM
- GI50 (HCT-116 colon): 694 nM
- TGI (HCT-116 colon): 10100 nM
- GI50 (UO-31 renal): 103 nM
- TGI (UO-31 renal): 1380 nM
- GI50 (OVCAR-8 ovarian): 462 nM
- TGI (OVCAR-8 ovarian): 9790 nM
- GI50 (SNB-19 CNS): 1720 nM
- TGI (SNB-19 CNS): 13500 nM
- GI50 (HOP-92 NSCLC): 4520 nM
- TGI (HOP-92 NSCLC): 17600 nM
- GI50 (HL-60(TB) leukemia): 554 nM
- TGI (HL-60(TB) leukemia): 2770 nM
- GI50 (BT-549 breast): 2270 nM
- TGI (BT-549 breast): 12100 nM
- GI50 (OVCAR-5 ovarian): 4510 nM
- TGI (OVCAR-5 ovarian): 17100 nM

Compound: CC(C(=O)O)c1ccc(-c2ccccc2)c(F)c1 (stereo not given)
- TGI (RPMI-8226 leukemia): > 100000 nM
- TGI (M14 melanoma): > 100000 nM
- TGI (HCT-116 colon): > 100000 nM
- TGI (UO-31 renal): > 100000 nM
- TGI (OVCAR-8 ovarian): > 100000 nM
- TGI (SNB-19 CNS): > 100000 nM
- GI50 (HOP-92 NSCLC): 47600 nM
- TGI (HOP-92 NSCLC): > 100000 nM
- TGI (HL-60(TB) leukemia): > 100000 nM
- TGI (BT-549 breast): > 100000 nM
- TGI (OVCAR-5 ovarian): > 100000 nM
